Common to all, as to format: cell-based
For experiment [1], the target named is T1, EP1 receptors (Homo sapiens, UniProt P34995).
T1 sequence (P34995 1-402): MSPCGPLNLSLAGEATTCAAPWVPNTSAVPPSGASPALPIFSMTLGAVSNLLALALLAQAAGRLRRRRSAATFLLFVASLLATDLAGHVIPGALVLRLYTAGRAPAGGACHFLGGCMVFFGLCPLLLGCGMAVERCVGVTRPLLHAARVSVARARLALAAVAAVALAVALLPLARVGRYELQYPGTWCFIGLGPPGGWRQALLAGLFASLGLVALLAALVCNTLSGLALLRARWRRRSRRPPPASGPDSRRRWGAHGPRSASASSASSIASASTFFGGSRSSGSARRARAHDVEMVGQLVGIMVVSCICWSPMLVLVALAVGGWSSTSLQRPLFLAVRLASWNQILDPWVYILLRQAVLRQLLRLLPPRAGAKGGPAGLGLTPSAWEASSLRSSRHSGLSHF
Put plainly: human EP1 calcium mobilisation assay (CHO-K1 cells, PGE2, FLIPR). The conditions noted are these: free bases or sodium salts; averages of a number of experiments; read-out: functional pKi value, human EP1 calcium mobilisation assay (converted). Set-up: expressed in transfected cells; host or cells: CHO-K1. The method, then:
(§1) Briefly, the antagonist properties of compounds are assessed by their ability to inhibit the mobilisation of intracellular calcium ([Ca^2+]i) in response to activation of EP1 or EP3 receptors by the natural agonist hormone prostaglandin E2 (PGE2). Increasing concentrations of antagonist reduce the amount of calcium that a given concentration of PGE2 can mobilise. The net effect is to displace the PGE2 concentration-effect curve to higher concentrations of PGE2. The amount of calcium produced is assessed using a calcium-sensitive fluorescent dye such as Fluo-4, AM and a suitable instrument such as a Fluorimetric Imaging Plate Reader (FLIPR). Increasing amounts of [Ca^2+]i produced by receptor activation increase the amount of fluorescence produced by the dye and give rise to an increasing signal. The signal may be detected using the FLIPR instrument and the data generated may be analysed with suitable curve-fitting software.
(§2) The human EP1 or EP3 calcium mobilisation assay (hereafter referred to as ‘the calcium assay’) utilises Chinese hamster ovary-K1 (CHO-K1) cells into which a stable (pCIN; BioTechniques 20 (1996): 102-110) vector containing either EP1 or EP3 cDNA has previously been transfected. Cells are cultured in suitable flasks containing culture medium such as DMEM:F-12 supplemented with 10% v/v foetal calf serum, 2 mM L-glutamine, 0.25 mg/ml geneticin, 100 μM flurbiprofen and 10 µg/ml puromycin.
(§3) For assay, cells are harvested using a proprietary reagent that dislodges cells such as Versene. Cells are re-suspended in a suitable quantity of fresh culture media for introduction into a 384-well plate. Following incubation for 24 hours at 37° C. the culture media is replaced with a medium containing Fluo-4 and the detergent pluronic acid, and a further incubation takes place. Concentrations of compounds are then added to the plate in order to construct concentration-effect curves. This may be performed on the FLIPR in order to assess the agonist properties of the compounds. Concentrations of PGE2 are then added to the plate in order to assess the antagonist properties of the compounds.
(§4) The data so generated may be analysed by means of a computerised curve-fitting routine. The concentration of compound that elicits a half-maximal inhibition of the calcium mobilisation induced by PGE2 (pIC50) may then be estimated.
(Calcium assays in cells follow changes in intracellular calcium, usually with a dye or a luminescent sensor.)

For experiment [2], the target named is T2, EP3 receptors (Homo sapiens, UniProt P43115).
T2 construct: expressed in transfected cells; host or cells: CHO-K1
T2 sequence (P43115 1-390): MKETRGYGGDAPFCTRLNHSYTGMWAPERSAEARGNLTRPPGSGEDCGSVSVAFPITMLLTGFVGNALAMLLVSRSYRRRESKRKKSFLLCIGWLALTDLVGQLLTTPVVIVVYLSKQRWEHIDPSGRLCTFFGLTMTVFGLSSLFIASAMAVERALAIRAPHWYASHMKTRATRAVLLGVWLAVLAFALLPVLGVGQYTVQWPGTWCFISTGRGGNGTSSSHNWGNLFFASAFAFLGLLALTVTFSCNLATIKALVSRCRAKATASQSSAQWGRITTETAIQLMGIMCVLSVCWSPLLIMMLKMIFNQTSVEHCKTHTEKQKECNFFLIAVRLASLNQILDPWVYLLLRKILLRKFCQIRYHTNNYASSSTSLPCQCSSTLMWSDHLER
Put plainly: human EP3 calcium mobilisation assay (CHO-K1 cells, PGE2, FLIPR). The conditions noted are these: free bases or sodium salts; averages of a number of experiments; read-out: functional pKi value, human EP3 calcium mobilisation assay (converted). How it is done:
as §1, §2, §3, §4

The target of experiment [3] is T3, TP receptor (Homo sapiens, UniProt P21731).
T3 construct: expressed in transfected cells; host or cells: CHO-K1
T3 sequence (P21731 1-343): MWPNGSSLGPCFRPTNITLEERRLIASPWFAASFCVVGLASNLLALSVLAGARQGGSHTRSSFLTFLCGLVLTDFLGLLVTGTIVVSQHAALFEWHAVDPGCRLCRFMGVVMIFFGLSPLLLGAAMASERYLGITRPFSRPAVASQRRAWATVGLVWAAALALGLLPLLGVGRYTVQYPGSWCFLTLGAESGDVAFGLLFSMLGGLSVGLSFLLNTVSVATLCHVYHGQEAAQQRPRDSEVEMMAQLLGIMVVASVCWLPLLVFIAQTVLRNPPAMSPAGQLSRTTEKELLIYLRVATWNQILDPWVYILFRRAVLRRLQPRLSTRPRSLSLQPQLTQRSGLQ
Put plainly: human TP calcium mobilisation assay (CHO-K1 cells, U46619, FLIPR). The conditions noted are these: free bases or sodium salts; read-out: functional pKi, human TP calcium mobilisation assay (converted). How it is done:
as §1, with “To determine if a compound has agonist or antagonist activity at the TP receptor a functional calcium mobilisation assay may be performed. Briefly,” for “Briefly,”, “TP” for “EP1 or EP3”, “stable TXA2 mimetic U46619 (9,11-dideoxy-11α,9α-epoxy-methanoprostaglandin F2 α; commercially available from e.g Sigma-Aldrich).” for “natural agonist hormone prostaglandin E2 (PGE2).”, “U46619” for “PGE2”, “curve.” for “curve to higher concentrations of PGE2.”, “software. The agonist activity of the compounds are determined by their ability to cause an increase in intracellular mobilisation in the absence of U46619.” for “software.”
The human TP calcium mobilisation assay utilises Chinese hamster ovary-K1 (CHO-K1) cells into which a stable (pCIN; BioTechniques 20 (1996): 102-110) vector containing TP cDNA has previously been transfected. Cells are cultured in suitable flasks containing culture medium such as DMEM:F-12 supplemented with 10% v/v foetal calf serum, 2 mM L-glutamine, 0.25 mg/ml geneticin, 100 μM flurbiprofen and 10 μg/ml puromycin.
as §3, with “96-well” for “384-well”, “U46619” for “PGE2”
The data so generated may be analysed by means of a computerised curve-fitting routine. The concentration of compound that elicits a half-maximal inhibition of the calcium mobilisation induced by U46619 (plC50) may then be estimated, and the percentage activation caused by the compounds directly can be used to determine if there is any agonism present.

Counter-ions that a name gives are not always drawn.

Consider `O=C(NS(=O)(=O)c1cc(Cl)cc(Cl)c1)c1cccc(Cc2cc(Cl)ccc2OCc2ccc(Cl)cc2F)n1` [Example 31], for which the Ki is greater than 1000 nM in experiment [1] and greater than 10000 nM in experiment [2].

In the case of `O=C(O)c1cccc(Cc2cc(Cl)ccc2OCc2ccccc2Cl)n1` [Example 13, Sodium 6-[(5-chloro-2-{[(2-chlorophenyl)methyl]oxy}phenyl)methyl]-2-pyridinecarboxylate], the figures for the Ki in experiment [1] and in experiment [3] were no more than 31.6 nM and greater than 1000 nM, respectively.

Regarding `O=C(O)c1cccc(Cc2cc(Cl)ccc2OCc2ccccc2)n1` [Example 1, 6-({5-Chloro-2-[(phenylmethyl)oxy]phenyl}methyl)-2-pyridinecarboxylic acid], the Ki in experiment [3] was greater than 1000 nM.

Turning to `C=C(C)COc1ccc(Cl)cc1Cc1cccc(C(=O)O)n1` [Example 2, 6-({5-Chloro-2-[(2-methyl-2-propen-1-yl)oxy]phenyl}methyl)-2-pyridinecarboxylic acid], the Ki is no more than 31.6 nM in experiment [1] and greater than 10000 nM in experiment [2].

Regarding `O=C(O)c1cccc(Cc2cc(Cl)ccc2OCc2ccccc2F)n1` [Example 8, Sodium 6-[(5-chloro-2-{[(2-fluorophenyl)methyl]oxy}phenyl)methyl]-2-pyridinecarboxylate], the Ki in experiment [1] is less than 1000 nM; in experiment [3], less than 1000 nM; in experiment [2] it was greater than 10000 nM.

On to `Cc1ccc(Cc2cc(Cl)ccc2OCc2ccc(Cl)cc2F)nc1C(=O)O` [Example 40, 6-[(5-Chloro-2-{[(4-chloro-2-fluorophenyl)methyl]oxy}-phenyl)methyl]-3-methyl-2-pyridinecarboxylic acid, sodium salt], for which the Ki in experiment [1] is greater than 1000 nM; in experiment [2] it was greater than 10000 nM.

Turning to `COc1ccc(S(=O)(=O)NC(=O)c2cccc(Cc3cc(Cl)ccc3OCc3ccc(Cl)cc3F)n2)cc1` [Example 32, 6-[(5-Chloro-2-{[(4-chloro-2-fluorophenyl)methyl]oxy}-phenyl)methyl]-N-{[4-methoxyphenyl]suiphonyl}-2-pyridine-carboxamide], the Ki is greater than 1000 nM in experiment [1] and greater than 10000 nM in experiment [2].

For `CC(C)Oc1ccc(Cl)cc1Cc1cccc(C(=O)O)n1` [Example 16, Sodium 6-({5-chloro-2-[(1-methylethyl)oxy]phenyl}methyl)-2-pyridinecarboxylate], the Ki in experiment [1] was less than 1000 nM; in experiment [2], greater than 10000 nM.

For `O=C(O)c1cccc(Cc2cc(Cl)ccc2OCc2ccc(F)cc2)n1` [Example 5, sodium 6-[(5-chloro-2-{[(4-fluorophenyl)methyl]oxy}phenyl)methyl]-2-pyridinecarboxylate], the Ki in experiment [1] and in experiment [3] was less than 1000 nM throughout.

As to `O=C(O)c1cccc(Cc2cc(Cl)ccc2OC2CCCC2)n1` [Example 19, Sodium 6-{[5-chloro-2-(cyclopentyloxy)phenyl]methyl}-2-pyridinecarboxylate], the Ki is less than 1000 nM in experiment [1] and greater than 10000 nM in experiment [2].

As for `O=C(O)c1cc(Cl)cc(Cc2cc(Cl)ccc2OCc2ccc(Cl)cc2F)n1` [Example 37, 4-Chloro-6-[(5-chloro-2-{[(4-chloro-2-fluorophenyl)-methyl]oxy}phenyl)methyl]-2-pyridinecarboxylic acid, sodium salt], the Ki in experiment [1] was no more than 31.6 nM.

In the case of `O=C(O)c1cccc(Cc2cc(Cl)ccc2OCc2c(F)cc(F)cc2F)n1` [Example 6, Sodium 6-[(5-chloro-2-{[(2,4,6-trifluorophenyl)methyl]oxy}phenyl)methyl]-2-pyridinecarboxylate], the Ki in experiment [1] and in experiment [3] was less than 1000 nM in each case.

In the case of `O=C(O)c1cccc(Cc2cc(Cl)ccc2OCC2CCCCC2)n1` [Example 18, Sodium 6-({5-chloro-2-[(cyclohexylmethyl)oxy]phenyl}methyl)-2-pyridinecarboxylate], the Ki in experiment [1] was no more than 31.6 nM.

Turning to `CCC(CC)COc1ccc(Cl)cc1Cc1cccc(C(=O)O)n1` [Example 20, Sodium 6-({5-chloro-2-[(2-ethylbutyl)oxy]phenyl}methyl)-2-pyridinecarboxylate], the Ki in experiment [1] was less than 1000 nM.

For `O=C(O)c1cccc(Cc2cc(Cl)ccc2OCC2CC2)n1` [Example 17, Sodium 6-({5-chloro-2-[(cyclopropylmethyl)oxy]phenyl}methyl)-2-pyridinecarboxylate], the Ki in experiment [1] was less than 1000 nM; in experiment [2], greater than 10000 nM.

Consider `O=C(O)c1cccc(Cc2cc(Cl)ccc2OCc2ccc(F)c(F)c2F)n1` [Example 7, Sodium 6-[(5-chloro-2-{[(2,3,4-trifluorophenyl)methyl]oxy}phenyl)methyl]-2-pyridinecarboxylate], for which the Ki in experiment [1] and in experiment [3] was less than 1000 nM in each case.

As for `CC(=O)Nc1ccc(S(=O)(=O)NC(=O)c2cccc(Cc3cc(Cl)ccc3OCc3ccc(Cl)cc3F)n2)cc1` [Example 35, N-{[4-(Acetylamino)phenyl]-sulphonyl}-6-[(5-chloro-2-{[(4-chloro-2-fluorophenyl)methyl]-oxy}phenyl)methyl]-2-pyridine-carboxamide], the results for the Ki in experiment [1] and in experiment [2] were less than 1000 nM and greater than 10000 nM, respectively.

The record behind these values is patent publication US7759369B2, “Pyridine compounds for the treatment of prostaglandin mediated diseases” (Glaxo Group Limited, priority 2004, dated 2010).
